Where two headings read alike, the source gives them in different places.

The target in test [1] is T1, human GLP-1 receptor (hGLP-1R) (Homo sapiens, UniProt P43220).
T1 construct: expressed in transfected cells; crude membranes
The test can be described thus: [125I]-GLP-1 binding, SPA with membranes of HEK293 cells expressing hGLP-1R. Particulars: human GLP-1R; geometric mean (SEM, n); read-out: Binding Affinity Ki, nM (SEM, n) hGLP-1R.

For test [2], the target named is T2, human GIP receptor (hGIPR) (Homo sapiens, UniProt P48546).
T2 construct: expressed in transfected cells; crude membranes
T2 sequence (P48546 22-466): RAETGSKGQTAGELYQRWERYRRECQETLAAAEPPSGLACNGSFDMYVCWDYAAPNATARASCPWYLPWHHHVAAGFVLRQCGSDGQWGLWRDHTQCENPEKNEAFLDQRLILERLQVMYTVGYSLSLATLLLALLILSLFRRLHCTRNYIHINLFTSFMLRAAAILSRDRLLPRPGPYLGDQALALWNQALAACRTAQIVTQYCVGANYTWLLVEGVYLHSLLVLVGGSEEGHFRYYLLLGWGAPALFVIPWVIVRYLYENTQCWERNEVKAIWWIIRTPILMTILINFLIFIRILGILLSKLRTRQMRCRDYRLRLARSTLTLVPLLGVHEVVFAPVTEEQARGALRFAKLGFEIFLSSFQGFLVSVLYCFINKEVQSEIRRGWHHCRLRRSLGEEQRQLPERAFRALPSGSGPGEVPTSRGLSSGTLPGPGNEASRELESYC
The test can be described thus: [125I]-GIP binding, SPA with membranes of CHO cells expressing hGIPR. Particulars: human GIPR; geometric mean (SEM, n); read-out: Binding Affinity Ki, nM (SEM, n) hGIPR.

The target of the next test is T3, hGIPR (Homo sapiens, UniProt P48546).
T3 construct: expressed in transfected cells
T3 sequence (P48546 22-466): T2 sequence (P48546 22-466)
The test can be described thus: Functional cAMP formation (HTRF) in HEK-293 clonal cells expressing hGIPR, 0.1% bovine casein, without or with 1.0% human serum albumin. The class given is cell-based. To be noted: 37° C.; for Emax: HEK293, cAMP, 0.1% bovine casein and 1.0% human serum albumin, percent of maximal response to GIP(1-42)NH2, read-out: hGIPR Emax, % ± SEM; for EC50: cAMP, 0.1% bovine casein (no human serum albumin), geometric mean, read-out: hGIPR EC50, nM (SEM, n). In outline:
(§1)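 Cells were stimulated with peptide for 30 min at 37° C, then intracellular cAMP was measured by competitive HTRF (665/620 nm ratio) and converted to nM using a cAMP standard curve. Relative EC50 and Emax came from four-parameter logistic fits of percent maximal response against peptide concentration.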

The target in another test is T4, hGCGR (Homo sapiens, UniProt P47871).
T4 construct: expressed in transfected cells
The test can be described thus: Functional cAMP formation (HTRF) in HEK-293 clonal cells expressing hGCGR, 0.1% bovine casein, without or with 1.0% human serum albumin. Type of test: cell-based. Particulars: cAMP, 37° C., read-out: hGCGR EC50, nM (SEM, n). Put shortly:
as §1

For a further test, the target named is hGLP-1R (Homo sapiens, UniProt P43220). The test can be described thus: Functional cAMP formation (HTRF) in HEK-293 clonal cells expressing hGLP-1R, 0.1% bovine casein, without or with 1.0% human serum albumin. The class given is cell-based. Also on record: expressed in transfected cells. Particulars: 37° C.; for Emax: HEK293, cAMP, 0.1% bovine casein, percent of maximal response to GLP-1(7-36)NH2, arithmetic mean, read-out: hGLP-1R Emax, % ± SEM; for EC50: cAMP, read-out: hGLP-1R EC50, nM (SEM, n). In outline: as §1
For orientation: cAMP levels reflect the balance of adenylyl cyclase and phosphodiesterase activity.

Where [3] appears, read: 0.1% bovine casein (no human serum albumin), geometric mean.
[4] abbreviates: 0.1% bovine casein and 1.0% human serum albumin, geometric mean (SEM, n).

T4 sequence (P47871 26-477): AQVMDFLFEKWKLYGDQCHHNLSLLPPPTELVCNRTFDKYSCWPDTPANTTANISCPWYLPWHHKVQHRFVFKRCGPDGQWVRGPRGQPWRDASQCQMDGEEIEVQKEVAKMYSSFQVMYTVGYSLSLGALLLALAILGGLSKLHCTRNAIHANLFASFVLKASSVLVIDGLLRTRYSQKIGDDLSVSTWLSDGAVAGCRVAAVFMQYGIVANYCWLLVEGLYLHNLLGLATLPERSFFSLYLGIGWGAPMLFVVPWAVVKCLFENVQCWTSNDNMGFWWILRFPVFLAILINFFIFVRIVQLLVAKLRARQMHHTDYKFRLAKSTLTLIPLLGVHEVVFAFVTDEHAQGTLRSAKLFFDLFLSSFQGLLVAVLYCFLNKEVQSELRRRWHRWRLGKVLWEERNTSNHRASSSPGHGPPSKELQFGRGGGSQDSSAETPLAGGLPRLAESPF
hGLP-1R, sequence (P43220 24-463): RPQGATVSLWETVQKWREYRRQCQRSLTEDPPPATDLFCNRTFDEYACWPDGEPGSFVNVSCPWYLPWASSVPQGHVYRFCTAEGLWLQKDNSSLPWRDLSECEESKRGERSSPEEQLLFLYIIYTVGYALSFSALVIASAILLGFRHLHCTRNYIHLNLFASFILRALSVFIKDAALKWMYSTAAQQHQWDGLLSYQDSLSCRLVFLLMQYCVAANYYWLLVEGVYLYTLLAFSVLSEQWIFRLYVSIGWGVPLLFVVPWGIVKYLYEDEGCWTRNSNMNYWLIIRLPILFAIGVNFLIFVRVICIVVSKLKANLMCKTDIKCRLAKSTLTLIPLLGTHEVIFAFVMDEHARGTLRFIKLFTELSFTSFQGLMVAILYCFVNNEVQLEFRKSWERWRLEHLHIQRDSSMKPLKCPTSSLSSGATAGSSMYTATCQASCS
T1 sequence (P43220 24-463): as above

For the compound `CC[C@H](C)[C@H](NC(=O)[C@H](CC(C)C)NC(=O)[C@](C)(Cc1ccc(O)cc1)NC(=O)[C@H](CCCCNC(=O)CCOCCOCCOCCNC(=O)CC[C@H](NC(=O)CCCCCCCCCCCCC(=O)O)C(=O)O)NC(=O)[C@@H](NC(=O)[C@H](Cc1ccccc1)NC(=O)[C@H](CCCN)NC(=O)C(C)(C)NC(=O)[C@H](CCC(N)=O)NC(=O)[C@H](C)NC(=O)[C@H](CCC(N)=O)NC(=O)[C@H](CCCN)NC(=O)[C@H](CC(=O)O)NC(=O)[C@H](CC(C)C)NC(=O)[C@](C)(CC(C)C)NC(=O)[C@@H](NC(=O)C(C)(C)NC(=O)[C@H](Cc1ccncc1)NC(=O)[C@H](CC(=O)O)NC(=O)[C@H](CO)NC(=O)[C@@H](NC(=O)[C@](C)(Cc1ccccc1F)NC(=O)[C@@H](NC(=O)CNC(=O)[C@H](CCC(=O)O)NC(=O)C(C)(C)NC(=O)[C@@H](N)Cc1ccc(O)cc1)[C@@H](C)O)[C@@H](C)O)[C@@H](C)CC)[C@@H](C)CC)C(=O)N[C@@H](CCCCNC(=O)CCOCCOCCOCCNC(=O)CC[C@H](NC(=O)CCCCCCCCCCCCC(=O)O)C(=O)O)C(=O)NCC(=O)NCC(=O)N1CCC[C@H]1C(=O)N[C@@H](CO)C(=O)N[C@@H](CO)C(=O)NCC(=O)N[C@@H](C)C(=O)N1CCC[C@H]1C(=O)N1CCC[C@H]1C(=O)N1CCC[C@H]1C(=O)N[C@@H](CO)C(N)=O` [Example 458], the Ki (commonly a dissociation constant, usually derived from enzyme kinetics or from competition with a known ligand) is 0.266 nM in test [1] and 0.0232 nM in test [2]. Further, the Emax (as a rule, the size of the effect at its maximum, as opposed to the concentration needed) is 93.1% at hGIPR and 111% at hGLP-1R. Further, the EC50 (usually the concentration giving half of the maximal effect) at hGIPR is 0.0121 nM; at hGCGR (setting [3]), above 9950 nM; on hGCGR (setting [4]) it was above 9950 nM; at hGLP-1R (setting [3]) it was 0.179 nM.

`CC[C@H](C)[C@H](NC(=O)[C@H](CC(C)C)NC(=O)[C@](C)(Cc1ccc(O)cc1)NC(=O)[C@H](CCCCNC(=O)COCCOCCNC(=O)COCCOCCNC(=O)CC[C@H](NC(=O)CC[C@H](NC(=O)CCCCCCCCCCCCC(=O)O)C(=O)O)C(=O)O)NC(=O)[C@@H](NC(=O)[C@H](Cc1ccccc1)NC(=O)[C@H](CCCN)NC(=O)C(C)(C)NC(=O)[C@H](CCC(N)=O)NC(=O)[C@H](C)NC(=O)[C@H](CCC(N)=O)NC(=O)[C@H](CCCN)NC(=O)[C@H](CC(=O)O)NC(=O)[C@H](CC(C)C)NC(=O)[C@](C)(CC(C)C)NC(=O)[C@@H](NC(=O)C(C)(C)NC(=O)[C@H](Cc1ccncc1)NC(=O)[C@H](CC(=O)O)NC(=O)[C@H](CO)NC(=O)[C@@H](NC(=O)[C@](C)(Cc1ccccc1F)NC(=O)[C@@H](NC(=O)CNC(=O)[C@H](CCC(=O)O)NC(=O)C(C)(C)NC(=O)[C@@H](N)Cc1ccc(O)cc1)[C@@H](C)O)[C@@H](C)O)[C@@H](C)CC)[C@@H](C)CC)C(=O)N[C@@H](CCCCNC(=O)COCCOCCNC(=O)COCCOCCNC(=O)CC[C@H](NC(=O)CC[C@H](NC(=O)CCCCCCCCCCCCC(=O)O)C(=O)O)C(=O)O)C(=O)NCC(=O)NCC(=O)N1CCC[C@H]1C(=O)N[C@@H](CO)C(=O)N[C@@H](CO)C(=O)NCC(=O)N[C@@H](C)C(=O)N1CCC[C@H]1C(=O)N1CCC[C@H]1C(=O)N1CCC[C@H]1C(=O)N[C@@H](CO)C(N)=O` [Example 474]: the figures for the Ki in test [1] and in test [2] were 0.343 nM and 0.0427 nM, respectively. The Emax was found to be 85.6% at hGIPR and 113% at hGLP-1R. Also, the EC50 on hGIPR is 0.0106 nM; at hGCGR (setting [3]) it was above 9950 nM; at hGCGR (setting [4]), above 9950 nM; at hGLP-1R (setting [3]), 0.123 nM; on hGLP-1R (setting [4]) it was 1.1 nM.

In the case of `CCCCCCCCCCCC(=O)N[C@@H](CCC(=O)NCCOCCOCC(=O)NCCOCCOCC(=O)NCCCC[C@H](NC(=O)[C@H](CCCN)NC(=O)[C@H](CC(=O)O)NC(=O)[C@H](CC(C)C)NC(=O)[C@](C)(CC(C)C)NC(=O)[C@@H](NC(=O)C(C)(C)NC(=O)[C@H](CCCCNC(=O)COCCOCCNC(=O)COCCOCCNC(=O)CC[C@H](NC(=O)CCCCCCCCCCC)C(=O)O)NC(=O)[C@H](CC(=O)O)NC(=O)[C@H](CO)NC(=O)[C@@H](NC(=O)[C@](C)(Cc1ccccc1F)NC(=O)[C@@H](NC(=O)CNC(=O)[C@H](CCC(=O)O)NC(=O)C(C)(C)NC(=O)[C@@H](N)Cc1ccc(O)cc1)[C@@H](C)O)[C@@H](C)O)[C@@H](C)CC)C(=O)N[C@@H](C)C(=O)N[C@@H](CCC(N)=O)C(=O)NC(C)(C)C(=O)N[C@@H](CCCN)C(=O)N[C@@H](Cc1ccccc1)C(=O)N[C@H](C(=O)N[C@H](CCC(=O)O)C(=O)N[C@@](C)(Cc1ccc(O)cc1)C(=O)N[C@@H](CC(C)C)C(=O)N[C@H](C(=O)N[C@@H](CCC(=O)O)C(=O)NCC(=O)NCC(=O)N1CCC[C@H]1C(=O)N[C@@H](CO)C(=O)N[C@@H](CO)C(=O)NCC(=O)N[C@@H](C)C(=O)N1CCC[C@H]1C(=O)N1CCC[C@H]1C(=O)N1CCC[C@H]1C(=O)N[C@@H](CO)C(N)=O)[C@@H](C)CC)[C@@H](C)CC)C(=O)O` [Example 417], the values for the Ki in test [1] and in test [2] were 0.167 nM and 0.0214 nM, respectively. For the same compound, the Emax at hGIPR amounted to 96.4%; at hGLP-1R, 109%. Besides, the EC50 was 0.00651 nM on hGIPR; above 9950 nM on hGCGR (setting [3]); above 9950 nM at hGCGR (setting [4]); 0.0675 nM at hGLP-1R (setting [3]); 2.66 nM on hGLP-1R (setting [4]).

The record behind these values is patent US20230265151A1, “GIP/GLP1 CO-AGONIST COMPOUNDS” (priority 2020, published 2023).
